According to US20250351832A1, “PHYTOCHEMICALS AS BIOPESTICIDES AND BIOSTIMULANTS” (KAY BEE BIO ORGANICS PVT. LTD., priority 2024, published 2025):
Read-outs that look alike come from different tables or passages of the source.

What was measured:
[1] = test system: Citrus Canker (Xanthomonas citri pv. Citri); test: Field trial, citrus canker (Ex. 117); conditions: for % Increase in yield over control / Yield (t/ha): citrus; for Citrus Canker severity, Pre spray: pre spray (baseline)
[2] = test system: Cotton Bacterial Leaf Blight (BLB-Xanthomonas citri pv. Malvacearum); test: Field trial, cotton bacterial leaf blight, Embodiment 12 (Ex. 116); conditions: for % Increase over control: cotton yield; for % Disease reduction over Control / Yield: cotton
[3] = test system: Pomegranate Bacterial Leaf Blight (BLB-Xanthomonas axonopodis pv Punicae); test: Field trial, pomegranate bacterial leaf blight (Ex. 99); conditions: for % Increase in yield over control / Yield: pomegranate
[4] = cited from earlier work
Aphid [5] = test: whole plant or invertebrate; conditions: 48 h
Thrips [6] = conditions: 48 h, 1 mL or g/L
Thrips [7] = test system: Thrips
Thrips [8] = test: whole plant or invertebrate; conditions: in Gossypium hirsutum, 48 h
Spodoptera litura [9] = test: whole plant or invertebrate; conditions: 72 h
Spodoptera litura [10] = conditions: Spodoptera litura 3rd instar on cabbage plants, dose 1 ml/gm/lit. spray
Mealy Bug [11] = conditions: Mealy Bug on cotton leaves, dose 1 ml/gm/lit., 48 Hrs.
Helicoverpa armigera [12] = conditions: Helicoverpa armigera 3rd instar on chickpea plants, dose 1 ml/gm/lit. spray
Mite [13] = conditions: mite on okra plants, green house, dose 1 ml/gm/lit. spray
Helicoverpa armigera [14] = conditions: Helicoverpa armigera on okra fruits, dose 1 ml/gm/lit., 72 Hrs.
tomato seedlings = test: Response of tomato plants, greenhouse growth (Ex. 30); format: in vivo
Spodoptera litura [15] = conditions: 72 h, 1 mL or g/L
Aphid [16] = test system: Aphid
Mite [17] = conditions: Dose 1 ml/gm/lit.; 48 hrs
Mealy Bug [18] = conditions: mealy bug on cotton plants, green house, dose 1 ml/gm/lit. spray
Alternaria alternata = test: In vitro poisoned food technique against fungus (Ex. 20); format: cell-based; conditions: […]
chili seedlings = test: Response of chili plants, greenhouse growth (Ex. 31); format: in vivo
Aphid [19] = conditions: 48 h, 1 mL or g/L
[20] = Table 13, descriptive, no test described
[21] = read-out: % Corrected Mortality at 48 Hrs.
[22] = read-out: % Mortality at 48 Hrs.
[23] = 72 hrs, corrected for water control
[24] = 48 hrs, corrected for water control
[25] = tomato seedlings, 10th day, dose 1 ml/gm/lit
[26] = tomato seedlings, dose 1 ml/gm/lit, 10th day
[27] = chili seedlings, dose 1 ml/gm/lit, 10th day

O=[N+]([O-])C(Br)(CO)CO [Bronopol]
% Disease reduction over Control ([1]; dose 500 ppm): 72.62%
Citrus Canker severity, 1st spray 5rd Day ([1]; dose 500 ppm): 38.48
Citrus Canker severity, 1st spray 10th day ([1]; dose 500 ppm): 33.15
Citrus Canker severity, 2nd spray 5rd day ([1]; dose 500 ppm): 27.45
Citrus Canker severity, 2nd spray 10th Day ([1]; dose 500 ppm): 22.45
% Increase in yield over control ([1]; dose 500 ppm): 3.61%
Yield (t/ha) ([1]; dose 500 ppm): 8.30 t/ha
Citrus Canker severity, Pre spray ([1]; dose 500 ppm): 41.75
cotton BLB severity ([2]; 1st spray, 5th Day, dose 500 ppm): 31.33
cotton BLB severity ([2]; 1st spray, 10th Day, dose 500 ppm): 27.10
cotton BLB severity ([2]; 2nd spray, 5th Day, dose 500 ppm): 25.60
cotton BLB severity ([2]; 2nd spray, 10th Day, dose 500 ppm): 23.60
% Increase over control ([2]; dose 500 ppm): 13.79%
% Disease reduction over Control ([2]; dose 500 ppm): 66.38%
Yield ([2]; dose 500 ppm): 20.30 qtl/ha
% Disease reduction over Control ([3]; dose 500 ppm): 66.68%
BLB severity 1st spray 3rd Day ([3]; dose 500 ppm): 36.68
BLB severity 1st spray 5th day ([3]; dose 500 ppm): 32.15
BLB severity 2nd spray 3rd Day ([3]; dose 500 ppm): 28.75
BLB severity 2nd spray 5th Day ([3]; dose 500 ppm): 26.65
% Increase in yield over control ([3]; dose 500 ppm): 10.36%
Yield ([3]; dose 500 ppm): 10.55 t/ha

[Cu+2].[OH-].[OH-] [Copper Hydroxide]
% Disease reduction over Control ([1]; dose 0.30%): 70.60%
Citrus Canker severity, 1st spray 5rd Day ([1]; dose 0.30%): 37.65
Citrus Canker severity, 1st spray 10th day ([1]; dose 0.30%): 33.15
Citrus Canker severity, 2nd spray 5rd day ([1]; dose 0.30%): 28.10
Citrus Canker severity, 2nd spray 10th Day ([1]; dose 0.30%): 24.10
% Increase in yield over control ([1]; dose 0.30%): 13.98%
Yield (t/ha) ([1]; dose 0.30%): 9.30 t/ha
Citrus Canker severity, Pre spray ([1]; dose 0.30%): 41.45
cotton BLB severity ([2]; 1st spray, 5th Day, dose 0.30%): 31.00
cotton BLB severity ([2]; 1st spray, 10th Day, dose 0.30%): 29.75
cotton BLB severity ([2]; 2nd spray, 5th Day, dose 0.30%): 27.45
cotton BLB severity ([2]; 2nd spray, 10th Day, dose 0.30%): 26.45
% Increase over control ([2]; dose 0.30%): 7.89%
% Disease reduction over Control ([2]; dose 0.30%): 62.32%
Yield ([2]; dose 0.30%): 19.00 qtl/ha
% Disease reduction over Control ([3]; dose 0.30%): 61.56%
BLB severity 1st spray 3rd Day ([3]; dose 0.30%): 35.45
BLB severity 1st spray 5th day ([3]; dose 0.30%): 33.15
BLB severity 2nd spray 3rd Day ([3]; dose 0.30%): 31.2
BLB severity 2nd spray 5th Day ([3]; dose 0.30%): 30.75
% Increase in yield over control ([3]; dose 0.30%): 16.42%
Yield ([3]; dose 0.30%): 11.13 t/ha

CCCCC[C@H](O)CC(=O)CCc1ccc(O)c(OC)c1 [Gingerol]
Antifungal Activity - Mode of action [4, 20]: More effective in restricting
Antioxidant Activity - Mode of action [4, 20]: High antioxidant activity
Bactericidal Activity - Mode of action [4, 20]: Antibacterial activity
Insecticidal Activities - Mode of action [4, 20]: Exhibit repellent activity
Nematicidal Activity - Mode of action [4, 20]: Suppressed root knot egg
Virucidal Activity - Mode of action [4, 20]: Inhibit viral nucleic
Phytotonic Effect ([4]; Table 13, effect on plants, descriptive): Enhanced plant
mortality at 1 mL or g/L (Aphid [5]; [21]): 58.8%
mortality at 1 mL or g/L (Aphid [5]; [22]): 65%
Total No. of dead insect at 48 Hrs. (Thrips [6]): 3.75
Total No. of dead insect at 48 Hrs. (Thrips [7]; 48 h): 30.00
% Mortality at 48 Hrs. (Thrips [7]; thrips on cotton plants, greenhouse, dose 1 ml/gm/lit. spray, 48 hrs after application): 30.00%
% Corrected Mortality at 48 Hrs. (Thrips [7]; thrips on cotton plants, greenhouse, dose 1 ml/gm/lit. spray, 48 hrs, corrected for water control): 22.22%
mortality at 1 mL or g/L (Thrips [8]; [21]): 28.6%
mortality at 1 mL or g/L (Thrips [8]; [22]): 37.5%
mortality at 1 mL or g/L (Spodoptera litura [9]; read-out: % Corrected Mortality at 72 Hrs.): 36.8%
mortality at 1 mL or g/L (Spodoptera litura [9]; read-out: % Mortality at 72 Hrs.): 40%
% Mortality at 72 Hrs. (Spodoptera litura [10]; 72 hrs after application): 37.50%
% Corrected Mortality at 72 Hrs. (Spodoptera litura [10]; [23]): 34.21%
% Mortality at 48 Hrs. (Mealy Bug [11]): 27.50%
% Corrected Mortality at 48 Hrs. (Mealy Bug [11]; corrected for water control): 23.68%
% Mortality at 72 Hrs. (Helicoverpa armigera [12]; 72 hrs after application): 50.00%
% Corrected Mortality at 72 Hrs. (Helicoverpa armigera [12]; [23]): 50.00%
% Mortality at 48 Hrs. (Mite [13]; 48 hrs after application): 30.00%
% Corrected Mortality at 48 Hrs. (Mite [13]; [24]): 26.32%
% Mortality at 72 Hrs. (Helicoverpa armigera [14]): 52.50%
% Corrected Mortality at 72 Hrs. (Helicoverpa armigera [14]; corrected for water control): 52.50%
CCI Pre (tomato seedlings): 12.65
Plant Height Pre (tomato seedlings): 5.62 cm
Stem Girth Pre (tomato seedlings): 1.35 mm
CCI 5th Day (tomato seedlings; 120 h): 14.63
Plant Height 5th Day (tomato seedlings; 120 h): 6.45 cm
Stem Girth 5th Day (tomato seedlings; 120 h): 1.92 mm
CCI 10th Day (tomato seedlings; 240 h): 16.87
Plant Height 10th Day (tomato seedlings; 240 h): 7.59 cm
Root Length % Increase over control (tomato seedlings; 240 h): 31.77%
Stem Girth 10th Day (tomato seedlings; 240 h): 2.31 mm
Plant Height % Increase over pre on 10th Day (tomato seedlings; [25]): 35.05%
Stem Girth % Increase over pre on 10th Day (tomato seedlings; [25]): 70.52%
CCI % Increase over pre on 10th Day (tomato seedlings; [26]): 33.36%
Root Length (cm) 10th Day (tomato seedlings; [26]): 4.38 cm
Total No. of dead insect at 72 Hrs. (Spodoptera litura [15]): 4.00
Total No. of dead insect at 48 Hrs. (Aphid [16]; 48 h): 6.25
% Corrected Mortality at 48 Hrs. (Aphid [16]; Dose 1 ml/gm/lit., 48 hrs): 57.14%
% Mortality at 48 Hrs. (Aphid [16]; Dose 1 ml/gm/lit., 48 hrs): 62.50%
% Corrected Mortality at 48 Hrs. (Mite [17]): 29.73%
% Mortality at 48 Hrs. (Mite [17]): 35.00%
% Mortality at 48 Hrs. (Mealy Bug [18]; 48 hrs after application): 37.50%
% Corrected Mortality at 48 Hrs. (Mealy Bug [18]; [24]): 30.56%
inhibition of growth at 1 mL or g/L (Alternaria alternata): 51.7%
CCI Pre (chili seedlings): 9.40
Plant Height (cm) Pre (chili seedlings): 4.05 cm
CCI 5th Day (chili seedlings; 120 h): 13.02
Plant Height (cm) 5th Day (chili seedlings; 120 h): 5.95 cm
CCI 10th Day (chili seedlings; 240 h): 16
Plant Height (cm) 10th Day (chili seedlings; 240 h): 6.65 cm
Root Lenght % Increase over control (chili seedlings; 240 h): 37.61%
CCI % Increase over pre on 10th Day (chili seedlings; [27]): 70.21%
Plant Height % Increase over pre on 10th Day (chili seedlings; [27]): 64.20%
Root Lenght (cm) 10th Day (chili seedlings; [27]): 3.77 cm
Stem Girth % Increase over pre on 10th Day (chili seedlings; [27]): 45.00%
Total No. of dead insect at 48 Hrs. (Aphid [19]): 65.00

Copper
% Disease reduction over Control ([1]; dose 0.25%): 71.15%
Citrus Canker severity, 1st spray 5rd Day ([1]; dose 0.25%): 39.56
Citrus Canker severity, 1st spray 10th day ([1]; dose 0.25%): 34.15
Citrus Canker severity, 2nd spray 5rd day ([1]; dose 0.25%): 29.65
Citrus Canker severity, 2nd spray 10th Day ([1]; dose 0.25%): 23.65
% Increase in yield over control ([1]; dose 0.25%): 13.04%
Yield (t/ha) ([1]; dose 0.25%): 9.20 t/ha
Citrus Canker severity, Pre spray ([1]; dose 0.25%): 40.52

[Cl-].[Cu+2].[Cu+2].[OH-].[OH-].[OH-] [Copper oxychloride]
cotton BLB severity ([2]; 1st spray, 5th Day, dose 0.25%): 30.00
cotton BLB severity ([2]; 1st spray, 10th Day, dose 0.25%): 28.45
cotton BLB severity ([2]; 2nd spray, 5th Day, dose 0.25%): 23.65
cotton BLB severity ([2]; 2nd spray, 10th Day, dose 0.25%): 21.36
% Increase over control ([2]; dose 0.25%): 5.41%
% Disease reduction over Control ([2]; dose 0.25%): 69.57%
Yield ([2]; dose 0.25%): 18.50 qtl/ha
% Disease reduction over Control ([3]; dose 0.25%): 67.92%
BLB severity 1st spray 3rd Day ([3]; dose 0.25%): 36.65
BLB severity 1st spray 5th day ([3]; dose 0.25%): 30.15
BLB severity 2nd spray 3rd Day ([3]; dose 0.25%): 26.14
BLB severity 2nd spray 5th Day ([3]; dose 0.25%): 25.66
% Increase in yield over control ([3]; dose 0.25%): 12.45%
Yield ([3]; dose 0.25%): 10.75 t/ha
